Source: paper PMC9902381, “Binding and functional structure-activity similarities of 4-substituted 2,5-dimethoxyphenyl isopropylamine analogues at 5-HT2A and 5-HT2B serotonin receptors” (Frontiers in Pharmacology, 2023)
Like-named read-outs stand apart in the source and are kept apart here.

Legend:
human 5-HT2B receptor [1] = molecular target: T1, human 5-HT2B receptor (Homo sapiens, UniProt P41595); experiment: 5-HT2B receptor functional activity (agonist) using Ca2+ mobilization assay in Flp-In T-REx 293 cells; type: cell-based; conditions: for Maximal 5-HT effect: maximal effect relative to 5-HT = 100%; for Emax: Flp-In-T-REx-293, read-out: Maximal 5-HT effect; for agonist effect at 5-HT2B receptors: highest concentration examined (10,000 nM)
T1 construct: host or cells: Flp-In T-REx 293 cells (HEK 293)

human 5-HT2A = molecular target: human 5-HT2A; parameters: method as in Nelson et al., 1999; conditions: cloned human 5-HT2A vs [125I]DOI; ref Nelson et al., 1999; cited from earlier work
rat 5-HT2 = molecular target: rat 5-HT2; parameters: method as in Seggel et al., 1990; conditions: rat brain 5-HT2 vs [3H]ketanserin; ref Seggel et al., 1990; cited from earlier work
[2] = substituent constant; ref Hansch et al. 1973; cited from earlier work
human 5-HT2B = molecular target: human 5-HT2B; parameters: method as in Nelson et al., 1999; conditions: human 5-HT2B vs [3H]5-HT; ref Nelson et al., 1999; cited from earlier work
human 5-HT2B receptor [3] = molecular target: T1, human 5-HT2B receptor; experiment: 5-HT2B receptor antagonism of 10 nM 5-HT Ca2+ signal in Flp-In T-REx 293 cells; type: cell-based
Description: A stable cell line was generated expressing the human 5-HT2B receptor using the Flp-In T-REx system (Thermo Fisher) ([Younkin et al., 2016]; [Steele et al., 2021]). Briefly, 5-HT2B receptor coding plasmid was obtained from cDNA Resource Center (cat # HTR02B0000). The 5-HT2B receptor cDNA was subcloned into the pcDNA/FRT/TO expression plasmid, and was co-transfected with pOG44 plasmid (coding the Flp recombinase) in Flp-In T-REx 293 cells. Cells were selected using 100 μg/mL of hygromycin and resistant cells were expanded and stored in liquid N2 for later use. For experimentation, stable cell lines were plated in Matrigel-coated 96-well imaging plates in Dulbecco’s Modified Eagle Medium (DMEM) containing 10% fetal bovine serum (FBS) and 5% penicillin/streptomycin, and the medium was supplemented with doxycycline (1 μg/mL) to upregulate the expression of the receptor 3 days before the experiment. Then, cells were loaded with Fura 2-AM for 30 min in Ca^2+ imaging solution (IS) consistent of 130 NaCl, 4 KCl, 2 CaCl2, 1 MgCl2, 10 HEPES, 10 glucose (in mM, pH adjusted to 7.4). […] Three wells containing cells were analyzed for each concentration per experiment day. […] All data were processed used Fiji software by ImageJ2 which allowed manual selection of cells and measurement of fluorescence. […]

rat 5-HT2A = test system: rat 5-HT2A; parameters: method as in Seggel et al., 1990; Glennon 2017; conditions: ref Seggel et al., 1990; Glennon 2017; cited from earlier work
human 5-HT2B receptors = test system: human 5-HT2B receptors; parameters: method as in Porter et al. (1999); conditions: CHO cells, intracellular calcium; ref Porter et al. (1999); cited from earlier work
5-HT2B receptor = test system: 5-HT2B receptor; parameters: method as in Huang et al. (2009); conditions: multiple functional assays; ref Huang et al. (2009); cited from earlier work
[4] = agonist potency, Ca2+ mobilization, Hill slope 1.0
[5] = agonist potency, Ca2+ mobilization, Hill slope 1.0, read-out: h5-HT2B EC50

T1 sequence (P41595 whole entry): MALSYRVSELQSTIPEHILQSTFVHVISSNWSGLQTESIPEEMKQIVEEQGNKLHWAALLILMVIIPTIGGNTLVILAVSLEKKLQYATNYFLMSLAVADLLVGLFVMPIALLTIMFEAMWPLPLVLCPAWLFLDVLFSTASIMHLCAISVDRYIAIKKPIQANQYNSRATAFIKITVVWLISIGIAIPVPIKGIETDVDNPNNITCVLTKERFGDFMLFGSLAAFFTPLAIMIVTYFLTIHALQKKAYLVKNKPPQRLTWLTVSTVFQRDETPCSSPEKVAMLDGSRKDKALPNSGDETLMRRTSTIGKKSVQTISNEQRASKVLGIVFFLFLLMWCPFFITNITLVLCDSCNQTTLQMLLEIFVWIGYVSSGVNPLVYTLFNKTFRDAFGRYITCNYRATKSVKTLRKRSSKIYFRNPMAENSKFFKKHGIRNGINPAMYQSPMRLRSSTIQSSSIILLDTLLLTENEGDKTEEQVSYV

Row | SMILES | EC50 (human 5-HT2B receptor [1]) | Maximal 5-HT effect (human 5-HT2B receptor [1]) | h5-HT2A pKi (human 5-HT2A) | r5-HT2 pKi (rat 5-HT2) | π (lipophilic character of 4-position substituent) [2] | σp (electronic character of 4-position substituent) [2] | Emax (human 5-HT2B receptor [1]) | h5-HT2B pKi (human 5-HT2B) | agonist effect at 5-HT2B receptors (human 5-HT2B receptor [1]) | action on the 5-HT-mediated response at 5-HT2B (human 5-HT2B receptor [3]) | rat 5-HT2A functional action (rat 5-HT2A) | % of the effect of 5-HT at human 5-HT2B (human 5-HT2B receptors) | h5-HT2B pEC50 ± SEM (human 5-HT2B receptor [1]; [4]) | EC50 (human 5-HT2B receptor [1]; [5]) | potency relative to R (−) enantiomer at 5-HT2B (human 5-HT2B receptor [1]; optical isomers of 2,5-DMA) | 5-HT2B receptor agonist action (5-HT2B receptor)
1 | CCCc1cc(OC)c(CC(C)N)cc1OC (stereo not shown) [1j] | 55 nM | 75% | 9.05 | 7.16 | 1.55 | -0.13 |  |  |  |  |  |  |  |  |  | 
2 | COc1cc(CC(C)N)c(OC)cc1F (stereo not shown) [1b] | 439 nM |  | 7.38 | 5.96 | 0.14 | 0.06 | 82% | 6.64 |  |  |  |  |  |  |  | 
3 | CCCCCCc1cc(OC)c(CC(C)N)cc1OC (stereo not shown) [1k] | > 10000 nM | 0% | 10.00 | 8.60 | 3.05 | -0.13 |  | 7.52 | failed to produce an agonist effect | behaved as antagonists | lack rat 5-HT2A agonist action and behave as antagonists |  |  |  |  | 
4 | COc1cc(CC(C)N)c(OC)cc1Br (stereo not shown) [1d] | 8.7 nM |  | 9.22 |  | 0.86 | 0.23 | 70% | 7.53 |  |  |  | 69% |  |  |  | 
5 | COc1ccc(OC)c(CC(C)N)c1 (stereo not shown) [1a, 1-(2,5-dimethoxyphenyl)isopropylamine] | 3390 nM |  | 6.68 | 5.28 |  | 0 | 93% | 5.98 |  |  |  |  |  |  |  | 
6 | COc1cc(CC(C)N)c(OC)cc1Cc1ccccc1 (stereo not shown) [1m] | > 10000 nM |  | 9.40 | 8.15 | 2.01 | -0.09 | 0% | 7.64 | failed to produce an agonist effect | behaved as antagonists | lack rat 5-HT2A agonist action and behave as antagonists |  |  |  |  | 
7 | COc1cc(CC(C)N)c(OC)cc1C#N (stereo not shown) [1i] |  |  | 7.34 | 5.62 | -0.57 | 0.66 |  | 6.11 |  |  |  |  |  |  |  | 
8 | COc1ccc(OC)c(C[C@@H](C)N)c1 (single isomer, unassigned) [R (−) enantiomer] |  | 87% |  |  |  |  |  |  |  |  |  |  | 5.49 ± 0.16 | 3240 nM |  | 
9 | COc1cc(OC)c(OC)cc1CC(C)N (stereo not shown) [1f] |  |  | 7.24 | 5.90 | -0.02 | -0.27 |  | 6.51 |  |  |  |  |  |  |  | 
10 | COc1ccc(OC)c(C[C@H](C)N)c1 [S (+)1a] |  | 100% |  |  |  |  |  |  |  |  |  |  | 6.32 ± 0.15 | 480 nM | about six times more potent | 
11 | COc1cc(C(C)(C)C)c(OC)cc1CC(C)N (stereo not shown) [1l] | 37.2 nM |  | 8.43 | 7.72 | 1.98 | -0.20 | 69% | 7.61 |  |  |  |  |  |  |  | 
12 | COc1cc([N+](=O)[O-])c(OC)cc1CC(C)N (stereo not shown) [1h] | 89 nM |  | 8.26 | 6.52 | -0.28 | 0.78 | 77% | 6.78 |  |  |  |  |  |  |  | 
13 | COc1cc(CC(C)N)c(OC)cc1I (stereo not shown) [1e] | 37.2 nM | 71% |  | 7.72 | 1.12 | 0.18 |  | 7.70 |  |  |  | 65% |  |  |  | potent 5-HT2B receptor agonist
14 | CCOc1cc(OC)c(CC(C)N)cc1OC (stereo not shown) [1g] | 557 nM |  | 7.14 | 5.66 | 0.38 | -0.24 | 70% | 6.12 |  |  |  |  |  |  |  | 
15 | COc1cc(CC(C)N)c(OC)cc1Cl (stereo not shown) [1c] |  |  | 8.85 | 6.66 | 0.71 | 0.23 |  | 7.50 |  |  |  |  |  |  |  | 
